We go through eleven compounds from patent US7504430B2, “Maleiimide anti-tumor phosphatase inhibitors” (The United States of America as represented by the …, priority 2004, dated 2009).

One series concerns Hep3B cells. As to the kind of experiment: Hep3B cell growth inhibition (Hoechst 33258 DNA fluorescence, 3 days of treatment). In kind it is cell-based, human. The conditions noted are these: for Potency at Hep3B cell growth inhibition compared with Cpd5: versus Cpd5 (2-(2-mercaptoethanol)-3-methyl-1,4-naphthoquinone); for Inhibition of Hep3B cell growth: even at 10 μM. On the procedure: Hep3B or JM-1 hepatoma cells were grown in tissue culture in MEM medium supplemented with 10% fetal bovine serum. Cells were plated at a density of 1×104. […] Culture medium was replaced every day with new medium containing the inhibitor. After 3 days of treatment, the cells were rinsed once with PBS and frozen at −80° C. until counting. Frozen cells were thawed and incubated with the DNA-staining dye Hoescht 33258. The cell numbers were determined by measuring the dye-bound DNA fluorescence by a fluorescent plate reader.
(§1) IC50 was determined from the growth inhibition curves.

A further series addresses T1, PYP1B (Homo sapiens, UniProt P18031).
T1 sequence (P18031 1-435): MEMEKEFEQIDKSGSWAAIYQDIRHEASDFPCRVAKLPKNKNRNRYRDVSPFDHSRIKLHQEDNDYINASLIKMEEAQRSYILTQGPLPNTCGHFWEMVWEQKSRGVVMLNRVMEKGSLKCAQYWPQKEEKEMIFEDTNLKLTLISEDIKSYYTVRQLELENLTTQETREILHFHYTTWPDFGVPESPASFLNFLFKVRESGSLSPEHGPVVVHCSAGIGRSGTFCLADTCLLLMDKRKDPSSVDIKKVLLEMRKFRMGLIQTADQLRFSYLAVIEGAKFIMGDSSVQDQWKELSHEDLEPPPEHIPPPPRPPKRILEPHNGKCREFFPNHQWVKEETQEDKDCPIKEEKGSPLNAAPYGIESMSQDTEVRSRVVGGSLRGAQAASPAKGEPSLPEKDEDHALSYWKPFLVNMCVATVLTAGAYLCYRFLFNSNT
As to the kind of experiment: Phosphatase inhibition, PYP1B. In kind it is biochemical.

Another series has as its system PCI. As to the kind of experiment: Tumor cell line growth inhibition, PCI. In kind it is cell-based. The settings on record: Homo sapiens, 72 h, Tongue, cultured for 3 days, maximum concentration 20 μmol/L. The procedure: as §1
For another series, the system named is EGFR and ERK1/2. The series is described as follows: Tyrosine phosphorylation of EGFR and ERK1/2. In kind it is cell-based.
The next series concerns HR. The series is described as follows: Tumor cell line growth inhibition, HR. In kind it is cell-based. The settings on record: Homo sapiens, 72 h, Stomach, cultured for 3 days, maximum concentration 20 μmol/L. The procedure: as §1
For a further series, the target named is T2, CD45 (Homo sapiens, UniProt P08575).
T2 sequence (P08575 26-1306): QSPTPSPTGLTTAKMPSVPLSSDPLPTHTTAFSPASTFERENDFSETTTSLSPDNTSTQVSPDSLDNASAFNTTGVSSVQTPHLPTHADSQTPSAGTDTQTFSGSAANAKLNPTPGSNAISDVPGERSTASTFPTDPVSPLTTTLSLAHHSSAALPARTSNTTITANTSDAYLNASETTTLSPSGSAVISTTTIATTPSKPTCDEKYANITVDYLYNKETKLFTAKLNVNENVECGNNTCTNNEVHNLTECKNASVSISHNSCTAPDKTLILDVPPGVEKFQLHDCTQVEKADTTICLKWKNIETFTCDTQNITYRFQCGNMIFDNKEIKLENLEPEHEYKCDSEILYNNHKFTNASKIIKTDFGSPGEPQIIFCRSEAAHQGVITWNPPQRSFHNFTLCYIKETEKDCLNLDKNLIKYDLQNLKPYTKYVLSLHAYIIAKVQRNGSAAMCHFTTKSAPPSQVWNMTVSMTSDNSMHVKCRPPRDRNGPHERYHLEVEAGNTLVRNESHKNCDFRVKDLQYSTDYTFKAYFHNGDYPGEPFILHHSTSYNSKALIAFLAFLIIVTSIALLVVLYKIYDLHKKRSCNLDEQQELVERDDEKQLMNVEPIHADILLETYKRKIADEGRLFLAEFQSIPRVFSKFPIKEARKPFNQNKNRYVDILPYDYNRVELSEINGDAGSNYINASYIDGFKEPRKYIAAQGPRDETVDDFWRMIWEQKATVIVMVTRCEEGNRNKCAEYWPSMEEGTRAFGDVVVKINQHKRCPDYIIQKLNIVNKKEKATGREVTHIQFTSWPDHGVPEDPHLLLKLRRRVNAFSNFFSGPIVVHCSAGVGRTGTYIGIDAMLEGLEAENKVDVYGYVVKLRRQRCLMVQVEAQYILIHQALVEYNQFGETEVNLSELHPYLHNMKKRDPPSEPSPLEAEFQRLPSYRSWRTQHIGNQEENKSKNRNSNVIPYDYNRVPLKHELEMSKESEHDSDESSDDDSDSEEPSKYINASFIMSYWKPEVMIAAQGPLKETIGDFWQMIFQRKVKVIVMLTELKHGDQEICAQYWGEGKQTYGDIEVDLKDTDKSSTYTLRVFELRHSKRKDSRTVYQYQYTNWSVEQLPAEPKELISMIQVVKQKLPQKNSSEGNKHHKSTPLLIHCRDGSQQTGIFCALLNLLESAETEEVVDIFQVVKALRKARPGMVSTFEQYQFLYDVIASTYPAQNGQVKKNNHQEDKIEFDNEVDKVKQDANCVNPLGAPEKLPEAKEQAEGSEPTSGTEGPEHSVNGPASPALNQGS
The series is described as follows: Phosphatase inhibition, CD45. In kind it is biochemical.

The test system of a further series is MCF7. As to the kind of experiment: Tumor cell line growth inhibition, MCF7. In kind it is cell-based. The conditions noted are these: Homo sapiens, 72 h; Breast, MCF7, cultured for 3 days; maximum concentration 20 μmol/L. The procedure: as §1
Another series concerns LS180. The series is described as follows: Tumor cell line growth inhibition, LS180. In kind it is cell-based. The settings on record: Homo sapiens, 72 h; Colon, LS180, cultured for 3 days; maximum concentration 20 μmol/L. The procedure:
as §1

The next series deals with cell cycle. The series is described as follows: Cell cycle analysis. In kind it is cell-based. The conditions noted are these: with upregulation of tyrosine phosphorylation of Cdk1, 2 and 4.
The subject of the next series is SKBR3. As to the kind of experiment: Tumor cell line growth inhibition, SKBR3. In kind it is cell-based. The settings on record: Homo sapiens, SK-BR-3, 72 h; Breast, SKBR3, cultured for 3 days; maximum concentration 20 μmol/L. The procedure: as §1
The target of a further series is T3, MKP1 (Homo sapiens, UniProt P28562).
T3 sequence (P28562 1-367): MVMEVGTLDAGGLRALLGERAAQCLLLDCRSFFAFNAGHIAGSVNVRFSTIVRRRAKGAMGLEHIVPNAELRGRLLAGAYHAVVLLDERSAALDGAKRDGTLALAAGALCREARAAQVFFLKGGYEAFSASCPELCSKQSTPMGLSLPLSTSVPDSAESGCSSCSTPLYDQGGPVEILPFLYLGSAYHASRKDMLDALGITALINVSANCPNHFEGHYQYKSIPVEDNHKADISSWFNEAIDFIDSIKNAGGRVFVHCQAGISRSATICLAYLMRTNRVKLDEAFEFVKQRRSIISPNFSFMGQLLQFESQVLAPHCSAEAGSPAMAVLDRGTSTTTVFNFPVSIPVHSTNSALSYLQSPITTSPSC
The series is described as follows: Phosphatase inhibition, MKP1. In kind it is biochemical.

The next series deals with FemX. As to the kind of experiment: Tumor cell line growth inhibition, FemX. The conditions noted are these: Homo sapiens, Fem-X, 72 h, Skin, cultured for 3 days, maximum concentration 20 μmol/L. In kind it is cell-based. The procedure: as §1
The test system of series [1] is primary cultures of normal hepatocytes. The series is described as follows: DNA synthesis in primary cultures of normal hepatocytes versus Hep3B hepatoma cells. In kind it is cell-based.
Another series concerns JM-1 rat hepatoma cells. The series is described as follows: Orthotopic rat tumor model, JM-1 hepatoma cells seeded into livers of F344 rats. The conditions noted are these: 1 mg/kg intraperitoneal, every other day, 5 injections, control rats averaged 11 tumors per liver. In kind it is in vivo. On the procedure:
JM-1 rat hepatoma cells were seeded into livers of F344 rats. […] The control rats had on the average 11 tumors per liver, whereas the PM-20-treated rats had 2 tumors per rat.

Series [2] has as its target T4, catalytic domain of Cdc25B (Homo sapiens, UniProt P30305).
T4 sequence (P30305 431-538 limits assumed): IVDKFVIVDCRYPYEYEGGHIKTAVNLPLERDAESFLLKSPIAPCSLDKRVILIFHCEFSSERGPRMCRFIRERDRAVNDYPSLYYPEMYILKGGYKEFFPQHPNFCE
As to the kind of experiment: Binding to the catalytic domain of Cdc25B.

For series [3] the following is noted: orally in mice; cited from earlier work.
Setting [4] is: Homo sapiens, 72 h, Hep3B cells, 3 days of treatment, read-out: IC50, Hep3B cell growth inhibition.
[5] abbreviates: Homo sapiens, 72 h, Liver, Hep3B, cultured for 3 days, maximum concentration 20 μmol/L, read-out: IC50.

Usually IC50 stands for the midpoint of a concentration-inhibition curve.

Like-named read-outs stand apart in the source and are kept apart here.

In the case of `COc1ccc(N2C(=O)C(SCCO)=C(SCCO)C2=O)cc1` [PM-14, 3,4-bisthiolethanol-1-p-methoxyphenyl maleiimide], the concentration for half-maximal inhibition (IC50) in the series with Hep3B cells (setting [4]) is 6000 nM.

On to `O=C1C(SCCO)=C(SCCO)C(=O)N1c1ccc(-c2ccccc2)cc1` [PM-20, N-Biphenyl-4-yl-3,4-bis-(2-hydroxy-ethylsulfanyl)-maleimide], for which the “Activity against PYP1B” value on PYP1B was “essentially no activity”. In addition, the IC50 in the series on PCI is 2500 nM; in the series on HR it was 6 µM; in the series with MCF7, 4 µM; in the series on LS180, more than 20 µM; in the series with SKBR3, 6 µM; on MKP1, 75 µM. The IC50 in the series with FemX came out at 2500 nM; in the series on Hep3B cells (setting [4]), 700 nM; in the series with Hep3B cells (setting [5]), 700 nM. The “Inhibition of de-phosphorylation of ERK 1/2” value in the series on EGFR and ERK1/2 is “potent inhibitor”. Moreover, in the series on EGFR and ERK1/2, the “Tyrosine phosphorylation of EGFR and ERK1/2” value is “appear to induce tyrosine phosphorylation”. At CD45, the “Activity against CD45” value is recorded as “essentially no activity”. The Cell cycle effect entry in the series on cell cycle is recorded as “block, mainly in the G1 phase of cell cycle”. Moreover, the “Concentration needed to inhibit DNA synthesis, normal hepatocytes versus Hep3B” value in series [1] amounted to 10 fold. Moreover, the Number of tumors in the series on JM-1 rat hepatoma cells stood at 2 tumors per rat. Further, in [2], the “Binding to the catalytic domain of Cdc25B” value is “binds to the catalytic domain of Cdc25B”. Further, the “Potency at Hep3B cell growth inhibition compared with Cpd5” value in the series on Hep3B cells is given as “more potent inhibitors than Cpd5”.

Regarding `CC(=O)Nc1ccc(N2C(=O)C(SCCO)=C(SCCO)C2=O)cc1` [PM-26, N-{4-[3,4-Bis-(2-hydroxy-ethylsulfanyl)-2,5-dioxo-2,5-dihydro-pyrrol-1-yl]-phenyl}-acetamide], the IC50 with PCI is more than 20000 nM; with HR, more than 20 µM; with MCF7, more than 20 µM; in the series with LS180, more than 20 µM; with SKBR3, more than 20 µM; with FemX it was more than 20000 nM. Besides, in the series on Hep3B cells (setting [5]), the IC50 is more than 20000 nM. The “Inhibition of Hep3B cell growth” value in the series on Hep3B cells is “did not inhibit”.

Consider `CCOc1ccc(N2C(=O)C(SCCO)=C(SCCO)C2=O)cc1` [PM-28, 3,4-Bis-(2-hydroxy-ethylsulfanyl)-1-(4-ethoxyphenyl)-pyrrole-2,5-dione], for which the “Potency at Hep3B cell growth inhibition compared with Cpd5” value with Hep3B cells is listed as “more potent inhibitors than Cpd5”.

As for `CCCOc1ccc(N2C(=O)C(SCCO)=C(SCCO)C2=O)cc1` [PM-30, 3,4-Bis-(2-hydroxy-ethylsulfanyl)-1-(4-propoxyphenyl)-pyrrole-2,5-dione], the “Potency at Hep3B cell growth inhibition compared with Cpd5” value in the series with Hep3B cells was “more potent inhibitors than Cpd5”.

In the case of `O=C1C(SCCO)=C(SCCO)C(=O)N1c1ccc2ccccc2c1` [PM-34, 3,4-Bis-(2-hydroxy-ethylsulfanyl)-1-naphthalen-2-yl-maleimide], in the series with Hep3B cells, the “Potency at Hep3B cell growth inhibition compared with Cpd5” value is recorded as “more potent inhibitors than Cpd5”.

Consider `O=C1C(SCCO)=C(SCCO)C(=O)N1c1ccc(OCc2ccccc2)cc1` [PM-38, 1-(4-Benzyloxy-phenyl)-3,4-bis-(2-hydroxy-ethylsulfanyl)-pyrrole-2,5-dione], for which the “Inhibition of Hep3B cell growth” value in the series on Hep3B cells is “did not inhibit”.

With `O=C1C(SCCO)=C(SCCO)C(=O)N1c1ccc(-c2ccc([N+](=O)[O-])cc2)cc1` [PM-42, 1-(4′-nitro-biphenyl-4-yl)-3,4-bis-(2-hydroxy-ethylsulfanyl)-pyrrole-2,5-dione], the IC50 in the series with Hep3B cells (setting [4]) is approximately 100 nM.

Consider `O=C1C(SCCO)=C(SCCO)C(=O)N1c1ccccc1` [PM-I], for which the IC50 in the series with Hep3B cells (Hep3B cells, 3 days of treatment, read-out: IC50, Hep3B cell growth inhibition) was found to be 30000 nM.

Turning to `N#CC(=C(/N)Sc1ccccc1N)/C(C#N)=C(\N)Sc1ccccc1N` [U0126, reference compound], the “Effect on the growth inhibitory effect of PM-20” value in the series on Hep3B cells (MEK1/2 inhibitor given with PM-20, inhibition of ERK1/2 phosphorylation) is “antagonized the growth inhibitory effect of PM-20”.

For `CC1=CC(=O)c2ccccc2C1=O` [Vitamin K3], the LC50 in series [3] is 0.5 g/kg.
